Measurements as given in ChEMBL document CHEMBL1127215, “()-7-deazaaristeromycin lacking the hydroxymethyl substituent” (Bioorg Med Chem Lett, 1993).
Converted amounts (≈) assume the structure as drawn.

Legend:
E6SM [1] = test: Tested for antiviral activity against HSV-1 (KOS) in E6SM cells; type: functional; details: Homo sapiens
E6SM [2] = test: Tested for antiviral activity against HSV-2 (G) in E6SM cells; type: functional; details: Homo sapiens
E6SM [3] = test: Tested for antiviral activity against TK-HSV-1 (B2006) in E6SM cells; type: functional; details: Homo sapiens
E6SM [4] = test: Tested for toxicity against morphology of E6SM cells; type: functional; details: Homo sapiens
HeLa [5] = test: Tested for antiviral activity against respiratory syncytial (long) in HeLa cells; type: functional; details: Homo sapiens
HeLa [6] = test: Tested for toxicity against morphology of HeLa cells; type: functional; details: Homo sapiens
HeLa [7] = test: Tested for antiviral activity against coxsackie B4 in HeLa cells; type: functional; details: Homo sapiens
HEL [8] = test: Tested for anti-HCMV activity using AD-169 and Davis strains in HEL cells; type: functional; details: Homo sapiens
HEL [9] = test: Tested for effect on HEL cells growth viability for anti-HCMV activity; type: functional; details: Homo sapiens
MDCK = test: Tested for toxicity against morphology of MDCK cells; type: functional; details: Canis lupus familiaris
MT4 [10] = test: Tested for antiviral activity against HIV-1 (IIIB/LAI) in MT-4 cells; type: functional; details: Homo sapiens
MT4 [11] = test: Tested for antiviral activity against HIV-2 (ROD) in MT-4 cells; type: functional; details: Homo sapiens
MT4 [12] = test: Tested for toxicity against growth/viability of MT-4 cells; type: functional; details: Homo sapiens
Adenosylhomocysteinase = Adenosylhomocysteinase (Homo sapiens, UniProt P23526); test: Tested for inhibitory concentration against S-adenosyl-homocysteine hydrolase
Vero [13] = test: Tested for toxicity against morphology of vero cells; type: functional; details: Chlorocebus sabaeus
Vero [14] = test: Tested for antiviral activity against Junin in vero cells; type: functional; details: Chlorocebus sabaeus
Vero [15] = test: Tested for antiviral activity against forest in vero cells; type: functional; details: Chlorocebus sabaeus
Vero [16] = test: Tested for antiviral activity against Sindbis in vero cells; type: functional; details: Chlorocebus sabaeus
Vero [17] = test: Tested for antiviral activity against Tacaribe in vero cells; type: functional; details: Chlorocebus sabaeus
Vero [18] = test: Tested for antiviral activity against coxsackie B4 in vero cells; type: functional; details: Chlorocebus sabaeus
Vero [19] = test: Tested for antiviral activity against parainfluenza 3 (VR-93) in vero cells; type: functional; details: Chlorocebus sabaeus
Vero [20] = test: Tested for antiviral activity against reo-1 in vero cells; type: functional; details: Chlorocebus sabaeus

Adenosylhomocysteinase, sequence (P23526 whole entry): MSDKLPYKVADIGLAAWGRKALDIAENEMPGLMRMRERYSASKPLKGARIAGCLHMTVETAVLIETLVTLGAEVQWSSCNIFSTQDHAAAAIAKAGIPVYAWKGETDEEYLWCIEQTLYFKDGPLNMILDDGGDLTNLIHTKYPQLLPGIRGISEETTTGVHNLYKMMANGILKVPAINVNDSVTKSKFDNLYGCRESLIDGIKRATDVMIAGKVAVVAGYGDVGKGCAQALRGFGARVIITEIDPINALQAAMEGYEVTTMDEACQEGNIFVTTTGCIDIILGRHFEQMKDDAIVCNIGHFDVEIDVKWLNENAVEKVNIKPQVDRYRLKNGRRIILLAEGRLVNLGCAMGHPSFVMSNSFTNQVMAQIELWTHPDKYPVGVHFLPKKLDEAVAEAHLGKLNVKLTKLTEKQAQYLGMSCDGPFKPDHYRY

Nc1ncnc2c1ccn2C1CCC(O)C1O (stereo not given)
MIC50 (E6SM [1]): > 200 µg/mL | MIC50 (E6SM [2]): > 200 µg/mL | MIC50 (E6SM [3]): > 200 µg/mL | MIC50 (E6SM [4]): > 200 µg/mL | MIC50 (HeLa [5]): > 100 µg/mL | MIC50 (HeLa [6]): > 200 µg/mL | MIC50 (HeLa [7]): > 200 µg/mL | MIC50 (HEL [8]): 18 µg/mL (≈ 76.8 µM) | MIC50 (HEL [9]): 130 µg/mL (≈ 555 µM) | MIC50 (MDCK): > 100 µg/mL | MIC50 (MT4 [10]): > 130 µg/mL | MIC50 (MT4 [11]): > 130 µg/mL | MIC50 (MT4 [12]): > 130 µg/mL | IC50 (Adenosylhomocysteinase): > 100000 nM | MIC50 (Vero [13]): > 200 µg/mL | MIC50 (Vero [14]): 84 µg/mL (≈ 359 µM) | MIC50 (Vero [15]): > 200 µg/mL | MIC50 (Vero [16]): > 200 µg/mL | MIC50 (Vero [17]): 64 µg/mL (≈ 273 µM) | MIC50 (Vero [18]): > 200 µg/mL | MIC50 (Vero [19]): 150 µg/mL (≈ 640 µM) | MIC50 (Vero [20]): > 200 µg/mL

Nc1ccnc2c1ncn2[C@@H]1C[C@H](CO)[C@@H](O)[C@H]1O
IC50 (Adenosylhomocysteinase): 18 nM

Nc1ncnc2c1ncn2C[C@H](O)CO [(S)-DHPA]
IC50 (Adenosylhomocysteinase): 280 nM

Nc1ncnc2c1ncn2[C@@H]1C=C(CO)[C@@H](O)[C@H]1O [NEOPLANOCIN A]
IC50 (Adenosylhomocysteinase): 7.2 nM
